The target of one assay is T1, TLR7 (Homo sapiens, UniProt Q9NYK1).
T1 construct: expressed in transfected cells; host or cells: HEK/293 cells carrying TLR7 and an NF-kB luciferase reporter
T1 sequence (Q9NYK1 27-1049): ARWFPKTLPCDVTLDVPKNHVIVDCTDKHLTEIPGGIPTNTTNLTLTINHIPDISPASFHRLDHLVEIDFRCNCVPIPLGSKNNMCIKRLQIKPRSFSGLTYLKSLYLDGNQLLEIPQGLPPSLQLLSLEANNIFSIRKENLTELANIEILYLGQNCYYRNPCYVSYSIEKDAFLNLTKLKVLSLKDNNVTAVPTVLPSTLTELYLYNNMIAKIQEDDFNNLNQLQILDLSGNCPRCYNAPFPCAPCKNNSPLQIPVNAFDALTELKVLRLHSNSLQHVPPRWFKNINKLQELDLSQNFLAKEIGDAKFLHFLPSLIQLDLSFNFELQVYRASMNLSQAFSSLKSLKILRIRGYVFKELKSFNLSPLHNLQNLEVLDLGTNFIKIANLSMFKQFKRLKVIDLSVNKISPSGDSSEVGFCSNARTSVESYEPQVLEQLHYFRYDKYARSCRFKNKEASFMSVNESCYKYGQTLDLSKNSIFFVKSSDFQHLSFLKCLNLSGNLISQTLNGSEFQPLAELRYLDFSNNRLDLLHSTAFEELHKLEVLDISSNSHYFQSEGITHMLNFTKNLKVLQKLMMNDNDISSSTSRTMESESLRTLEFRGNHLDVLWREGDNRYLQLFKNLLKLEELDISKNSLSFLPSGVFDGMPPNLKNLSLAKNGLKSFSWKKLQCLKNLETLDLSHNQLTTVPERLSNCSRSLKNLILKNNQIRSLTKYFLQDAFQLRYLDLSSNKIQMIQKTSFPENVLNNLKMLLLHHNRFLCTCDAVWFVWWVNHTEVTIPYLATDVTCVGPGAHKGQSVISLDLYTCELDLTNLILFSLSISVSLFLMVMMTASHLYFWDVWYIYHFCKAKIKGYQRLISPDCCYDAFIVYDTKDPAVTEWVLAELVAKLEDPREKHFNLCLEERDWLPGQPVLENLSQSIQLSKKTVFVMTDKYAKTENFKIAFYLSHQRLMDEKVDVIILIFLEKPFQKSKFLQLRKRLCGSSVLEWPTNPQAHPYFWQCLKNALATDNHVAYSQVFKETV
The experiment in a line: HEK/293 TLR7 Cell Assay. In kind it is cell-based. Particulars: TLR7/NFKb HEK cells, R848 agonist 10 uM final concentration, Steady-Glo readout; read-out: TLR7 potency. The method, then:
(§1) Example 389: HEK/293 TLR7 Cell Assay Into 384 CulturePlates (Corning 3765) was placed 5000 c/w of TLR7/NFKb HEK cells in 30 uL DMEM without Phenol red (gibco #31053-028) and 10% heat inactivated fetal bovine serum, 10% penicillin-streptomycin, and 2 mM L-Glutamine. The cells were incubated for 24 h at 37° C., 10% carbon dioxide and 90% relative humidity. 3 uL of controls, standards, and compounds were dispensed into wells, incubated for 30 min then 3 uL of R848 agonist (10 uM final concentration) was added in 20 mM Hepes. After incubation for 5 hours, they were allowed to stand at room temperature for 15 min. To this was added 10 uL of Steady-Glo substrate reagent and shake assay plate for 5 min at 1500 rpm. The assay plate was allowed to sit for 30 min at room temperature and then the plate was read on EnVision.

The next assay concerns the target T2, TLR8 (Homo sapiens, UniProt Q9NR97).
T2 construct: expressed in transfected cells; host or cells: HEK/293 reporter cells (NF-kB luciferase)
T2 sequence (Q9NR97 27-1041): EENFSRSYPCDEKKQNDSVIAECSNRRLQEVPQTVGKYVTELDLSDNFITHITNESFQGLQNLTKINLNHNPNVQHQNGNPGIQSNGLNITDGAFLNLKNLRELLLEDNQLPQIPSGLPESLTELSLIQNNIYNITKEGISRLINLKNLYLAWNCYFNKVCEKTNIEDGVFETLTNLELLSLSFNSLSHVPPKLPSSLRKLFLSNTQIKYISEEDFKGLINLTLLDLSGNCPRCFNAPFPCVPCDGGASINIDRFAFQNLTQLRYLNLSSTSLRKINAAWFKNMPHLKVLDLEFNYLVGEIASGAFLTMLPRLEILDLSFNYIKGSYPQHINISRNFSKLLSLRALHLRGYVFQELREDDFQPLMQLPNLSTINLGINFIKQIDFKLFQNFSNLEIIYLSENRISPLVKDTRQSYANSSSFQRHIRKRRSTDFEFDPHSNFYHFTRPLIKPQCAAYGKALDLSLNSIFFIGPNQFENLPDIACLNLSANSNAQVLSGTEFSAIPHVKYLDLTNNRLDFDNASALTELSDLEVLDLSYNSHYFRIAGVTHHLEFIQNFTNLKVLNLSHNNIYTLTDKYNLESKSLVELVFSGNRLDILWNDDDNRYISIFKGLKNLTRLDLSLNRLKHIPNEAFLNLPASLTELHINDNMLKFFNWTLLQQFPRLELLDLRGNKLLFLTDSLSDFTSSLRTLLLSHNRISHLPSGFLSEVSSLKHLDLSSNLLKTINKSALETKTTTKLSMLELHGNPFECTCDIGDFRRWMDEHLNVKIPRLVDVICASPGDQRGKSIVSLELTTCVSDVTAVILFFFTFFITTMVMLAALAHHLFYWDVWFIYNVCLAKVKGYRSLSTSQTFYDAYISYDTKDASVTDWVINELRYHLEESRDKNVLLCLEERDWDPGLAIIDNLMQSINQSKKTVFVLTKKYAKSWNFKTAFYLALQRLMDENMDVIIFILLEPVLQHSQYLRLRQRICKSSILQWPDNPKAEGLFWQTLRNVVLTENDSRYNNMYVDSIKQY
The experiment in a line: HEK/293 TLR8 Cell Assay. In kind it is cell-based. Conditions: HEK cells, R848 agonist 30 uM final concentration, Steady-Glo readout; read-out: TLR8 potency. The method, then: as §1, with “Example 390:” for “Example 389:”, “HEK/293 TLR8” for “HEK/293 TLR7”, “serum, 1%” for “serum, 10%”, “agonist (30” for “agonist (10”

Where a name gives a salt, the structure may show the parent alone. Some results are limits rather than exact numbers.

These results are taken from US20210300940A1 (Merck Patent GmbH, priority 2018, published 2021).

For the compound `N#Cc1ccc(N2C[C@H](N)C[C@H](C(F)(F)F)C2)c2ccc(=O)[nH]c12` [Example 388, 5-((3R,5S)-3-Amino-5-trifluoromethyl-piperidin-1-yl)-2-oxo-1,2-dihydro-quinoline-8-carbonitrile], the IC50 on TLR7 and on TLR8 was over 150 nM throughout.
`C[C@H]1C[C@@H](NC(=O)[C@@H]2CCCN2)CN(c2ccc(C(F)(F)F)c3ncccc23)C1` [Example 176, (S)-Pyrrolidine-2-carboxylic acid [(3R,5S)-5-methyl-1-(8-trifluoromethyl-quinolin-5-yl)-piperidin-3-yl]-amide]: the IC50 is 75 to 150 nM at TLR7 and under 75 nM at TLR8.
The like results for `C[C@@H]1CN(c2ccc(C#N)c3ncncc23)C[C@H](C(=O)NC2CCNCC2(F)F)O1` (stereo partly drawn) [Example 299, (2R,6R)-4-(8-Cyano-quinazolin-5-yl)-6-methyl-morpholine-2-carboxylic acid (3,3-difluoro-piperidin-4-yl)-amide] were, in that order, under 75 nM and under 75 nM.
Turning to `CC(C)(O)CNC(=O)[C@H]1CN(c2ccc(C#N)c3nccnc23)C[C@@H](C(F)(F)F)O1` (single isomer, unassigned) [Example 284], the IC50 on TLR7 was under 75 nM; at TLR8 it was 75 to 150 nM.
The like results for `N#Cc1ccc(N2C[C@@H](C(F)(F)F)O[C@@H](C(=O)NC[C@]3(F)CCNC3)C2)c2nccnc12` (single isomer, unassigned) [Example 309] were, in that order, under 75 nM and under 75 nM.
For the compound `C[C@@H]1CN(c2cnc(C#N)c3ncccc23)C[C@H](C(=O)NC2CCC(N3CCOCC3)CC2)O1` (stereo partly drawn) [Example 277, (2R,6R)-4-(8-Cyano-[1,7]naphthyridin-5-yl)-6-methyl-morpholine-2-carboxylic acid (4-morpholin-4-yl-cyclohexyl)-amide], the IC50 at TLR7 and on TLR8 was under 75 nM throughout.
In the case of `C[C@@H](O)CNC(=O)[C@H]1CN(c2ccc(C#N)c3nccnc23)C[C@@H](C(F)(F)F)O1` (single isomer, unassigned) [Example 278], the IC50 at TLR7 and on TLR8 was over 150 nM in each case.
With `N#Cc1ccc(N2C[C@H](NC(=O)CC3CCNCC3F)C[C@H](C(F)(F)F)C2)c2cccnc12` (stereo partly drawn) [Example 138, N-[(3R,5S)-1-(8-Cyano-quinolin-5-yl)-5-trifluoromethyl-piperidin-3-yl]-2-(3-fluoro-piperidin-4-yl)-acetamide], the IC50 at TLR7 and at TLR8 was under 75 nM each time.
As to `C[C@@H]1CN(c2ccc(C(F)(F)F)c3ncccc23)C[C@H](CN2CCC(N3CCCC3)CC2)O1` [Example 328, 5-[(2R,6S)-2-Methyl-6-(4-pyrrolidin-1-yl-piperidin-1-ylmethyl)-morpholin-4-yl]-8-trifluoromethyl-quinoline], the values for the IC50 on TLR7 and at TLR8 were under 75 nM and 75 to 150 nM, respectively.
The matching figures for `C[C@@H]1CN(c2cnc(C(F)(F)F)c3ncccc23)C[C@H](CN2CCN(C)CC2)O1` [Example 387, 5-[(2R,6S)-2-Methyl-6-(4-methyl-piperazin-1-ylmethyl)-morpholin-4-yl]-8-trifluoromethyl-[1,7]naphthyridine]: 75 to 150 nM and 75 to 150 nM.
In the case of `C[C@H]1C[C@@H](N)CN(c2cnc(C#N)c3nccnc23)C1` [Example 187, 8-((3R,5S)-3-Amino-5-methyl-piperidin-1-yl)-pyrido[3,4-b]pyrazine-5-carbonitrile hydrochloride], the IC50 on TLR7 and on TLR8 was under 75 nM throughout.
Consider `C[C@H]1C[C@@H](NC(=O)CC2(O)CCN(C)CC2)CN(c2ccc(C#N)c3nccnc23)C1` [Example 72, N-[(3R,5S)-1-(8-cyanoquinoxalin-5-yl)-5-methylpiperidin-3-yl]-2-(4-hydroxy-1-methylpiperidin-4-yl)acetamide hydrochloride], for which the IC50 on TLR7 and on TLR8 was under 75 nM each time.
As for `CN1CCC(F)(CC(=O)N[C@@H]2C[C@H](C(F)(F)F)CN(c3ccc(C#N)c4ncncc34)C2)CC1` [Example 71, N-[(3R,5S)-1-(8-cyanoquinazolin-5-yl)-5-(trifluoromethyl)piperidin-3-yl]-2-(4-fluoro-1-methylpiperidin-4-yl)acetamide], the IC50 on TLR7 was under 75 nM; at TLR8, 75 to 150 nM.
Regarding `CNS(=O)(=O)CCNC(=O)[C@H]1CN(c2ccc(C#N)c3nccnc23)C[C@@H](C)O1` [Example 255, (2R,6R)-4-(8-cyanoquinoxalin-5-yl)-6-methyl-N-[2-(methylsulfamoyl)ethyl]morpholine-2-carboxamide], the IC50 on TLR7 and at TLR8 was under 75 nM each time.
Regarding `CC(C(=O)N[C@@H]1C[C@H](C)CN(c2cnc(C#N)c3nccnc23)C1)N1CCN(C)CC1` (stereo partly drawn) [Example 190, N-[(3R,5S)-1-(5-Cyano-pyrido[3,4-b]pyrazin-8-yl)-5-methyl-piperidin-3-yl]-2-(4-methyl-piperazin-1-yl)-propionamide], the results for the IC50 at TLR7 and on TLR8 were 75 to 150 nM and under 75 nM, respectively.
The matching figures for `C[C@H]1C[C@@H](NC(=O)CCS(=O)(=O)N(C)C)CN(c2ccc(C#N)c3nccnc23)C1` [Example 195, N-[(3R,5S)-1-(8-Cyano-quinoxalin-5-yl)-5-methyl-piperidin-3-yl]-3-dimethylsulfamoyl-propionamide]: 75 to 150 nM and 75 to 150 nM.
The like results for `CC(C(=O)N[C@@H]1C[C@H](C)CN(c2ccc(C(F)(F)F)c3ncccc23)C1)N1CCC(O)CC1` (single isomer, unassigned) [Example 104] were, in that order, under 75 nM and under 75 nM.
